Laboratory results: PMC9607644, “Glycoconjugation of Quinoline Derivatives Using the C-6 Position in Sugars as a Strategy for Improving the Selectivity and Cytotoxicity of Functionalized Compounds” (Molecules, 2022)

How the values were obtained:
ctDNA = test: Intercalation study, UV-Vis absorption titration with ctDNA; type: binding, calf; settings: 50 µM glycoconjugate, ctDNA 3 to 300 µM, Tris-HCl pH 7.5, 2 h 37 °C
Experimental: Due to the steric and electron features, quinoline-based compounds are well-known DNA intercalating agents. Therefore, the antiproliferative action of quinoline-related compounds can be related among others to intercalating between two adjacent base pairs of duplex DNA and inhibiting nucleic acid synthesis. […] The binding of the A-2 and E-2 to ctDNA has been characterized through absorption titration, which is an effective technique for DNA intercalation studies. The experiments were carried out for a constant concentration of glycoconjugates with increasing concentrations of ctDNA.
For the DNA binding studies, all experiments were carried out in molecular biology grade Tris-HCl buffer at pH 7.5 (EURx, Poland). The purity of the calf thymus DNA (ctDNA) (Sigma-Aldrich, St. Louis, MO, USA) was determined by measuring the ratio of UV absorbance at 260 and 280 nm. Here, the ratio was in the range of 1.8–1.9, indicating the DNA was sufficiently free from protein. The concentration of ctDNA was determined from the absorbance at 260 nm and using a molar absorption coefficient ε = 6600 M^−1 cm^−1 [68]. […] The samples were incubated for 2 h at 37 °C with gently shaking and the absorption spectra were measured using a UV–Vis-NIR spectrophotometer JASCO V-570 (Tokyo, Japan) in the range of 200–400 nm.

NHDF-Neo cells = test: Cell cycle analysis by flow cytometry, NHDF-Neo; type: cell-based, human; settings: IC50 dose, 24 h
From the text: After determining the type of cell death caused by the test compounds, the flow cytometry technique was used to study their influence on potential changes in the course of the cell cycle of the HCT-116, MCF-7, and NHDF-Neo lines. The cell cycle is the sequence of growth and division of cells, both normal and cancerous. This process begins from the resting phase (G0) through the active growth phases (G1, S, G2), leading to mitosis (M) in which the cell’s nucleus divides. […] After this time, cells were harvested and treated with a buffer to lysate the cells and isolate the cell nuclei. Propidium iodide was used to assess the amount of DNA in particular phases of the cell cycle. Histograms of DNA content in cells are presented in the Supplementary Materials (Figure S74).
The cell cycle and the type of cell death induced by the test compounds were measured by using flow cytometry according to the manufacturer’s protocol. The cells were seeded into 6-well plates at a density of 3 × 10^5 (HCT-116) or 4 × 10^5 (MCF-7, NHDF-Neo) per well (3 mL) and allowed to attach for 24 h under standard conditions with 5% CO2 at 37 °C. The following day, the medium was removed and cells were treated with solutions of test compounds in fresh medium at a dose equal to their IC50 values. Control cells were grown with fresh medium supplemented with 0.5% DMSO. After 24 h of incubation, the cells were collected by trypsinization. Then, samples were centrifuged (3 min, 2000 rpm, RT) and washed with PBS, after which the cells were centrifuged again (3 min, 2000 rpm, RT) and the supernatant was carefully removed. The resulting precipitate contained cells, which were used for flow cytometry experiments.
For cell cycle analysis, the cells were suspended in 300 μL of hypotonic buffer (consisting of: sodium citrate dihydrate 1 g/L, propidium iodide (PI) 1 mg/mL, RNAse A 10 mg/mL (EURx, Gdańsk, Poland), Triton X-100 1:9), mixed gently and incubated in the dark at room temperature for 20–30 min. […]

HCT-116 cells [1] = test: Wound healing assay, HCT-116; type: cell-based, human; settings: IC50 concentration, observed for 72 h
Experimental: (§1) This experiment consisted in making a “wound” in a confluent monolayer of HCT-116 and MCF-7 cells, which were next treated with the test compounds at their IC50 concentrations. […] In the control, cell migration from the edges of the wound is visible, gradually filling the gap. After 72 h, the wounds are almost completely covered with cells. In the same way, cell migration is observed in healthy NHDF cells.
(§2) To analyze the migration properties of cells exposed to test compounds, a wound-healing assay was performed as reported in the literature. The cells were seeded into 6-well plates at a density of 3 × 10^5 (HCT-116) or 4 × 10^5 (MCF-7, NHDF-Neo) per well (3 mL) and allowed to attach for 24 h under standard conditions with 5% CO2 at 37 °C. After forming a confluent monolayer, a linear scratch in each sample with a 200 µL pipette tip was made and the first photo at time zero was taken. The cells were washed with PBS and then treated with solutions of test compounds in a fresh medium at a dose equal to their IC50 values. Control cells were grown with fresh medium supplemented with 0.5% DMSO. The cells were incubated and monitored for 72 h under standard conditions with 5% CO2 at 37 °C. Cell monitoring and photos were taken using Live Cell Movie Analyzer, JuLI™ Br & FL (NanoEnTek Inc., Seoul, Korea).

HCT-116 cells [2] = test: Clonogenic assay, HCT-116; type: cell-based, human; settings: IC50 concentration 72 h, then 10 days in fresh medium
Experimental: (§3) MCF-7 and HCT-116 cells were treated with type A glycoconjugates and their ability to proliferate was observed. […] The formed colonies were stained with crystal violet (Figure 5).
(§4) To determine the number of colonies forming by cells after exposure to the test compounds, a clonogenic assay was performed as reported in the literature. The cells were seeded into 6-well plates at a density of 1 × 10^5 (HCT-116) or 2 × 10^5 (MCF-7, NHDF-Neo) per well (3 mL) and allowed to attach for 24 h under standard conditions with 5% CO2 at 37 °C. The following day, the medium was removed and cells were treated with solutions of test compounds in fresh medium at a dose equal to their IC50 values. Control cells were grown with fresh medium supplemented with 0.5% DMSO. After 72 h of incubation, the cells were collected by trypsinization and then reseeded into new 6-well plates at a density of 1000 cells/well/3 mL. The plates with cells were incubated for 10 days under standard conditions with 5% CO2 at 37 °C. After this time, the medium was removed and the cells were washed with PBS, fixed with ice-cold ethanol (-20 °C) for 3 min, and washed again with PBS. Finally, cells were stained with crystal violet (0.01% in H2O; Sigma-Aldrich, Taufkirchen, Germany) for 20 min. The plates were then washed with H2O and allowed to air-dry.

MCF-7 cells [3] = test: Wound healing assay, MCF-7; type: cell-based, human; settings: IC50 concentration, observed for 72 h
Experimental: as §1, §2

MCF-7 cells [4] = test: Clonogenic assay, MCF-7; type: cell-based, human; settings: IC50 concentration 72 h, then 10 days in fresh medium
Experimental: as §3, §4

SMILES | binding to ctDNA, change of UV-Vis absorption spectrum (ctDNA) | cell cycle phase distribution in words, NHDF-Neo (NHDF-Neo cells) | cell migration, HCT-116 (HCT-116 cells [1]) | clonogenic potential, HCT-116 (HCT-116 cells [2]) | cell migration, MCF-7 (MCF-7 cells [3]) | clonogenic potential, MCF-7 (MCF-7 cells [4])
OC[C@H]1O[C@@H](n2cc(COc3cccc4cccnc34)nn2)[C@H](O)[C@@H](O)[C@@H]1O [Compound E-2, reference compound] | hypochromic and bathochromic effects | – | – | – | – | –
CC(=O)OC1O[C@H](Cn2cc(COc3cccc4cccnc34)nn2)[C@@H](OC(C)=O)[C@H](OC(C)=O)[C@H]1OC(C)=O (stereo partly drawn) [Compound A-1] | – | slightly decreased the number of cells in the G2/M phase with a simultaneous slight increase in the percentage of cells in the G0/G1 phase | significantly slower migration | able to decrease the clonogenic potential | significantly slower migration | able to decrease the clonogenic potential
OC1O[C@H](Cn2cc(COc3cccc4cccnc34)nn2)[C@@H](O)[C@H](O)[C@H]1O (stereo partly drawn) [Compound A-2] | hypochromic and bathochromic effects | slightly decreased the number of cells in the G2/M phase with a simultaneous slight increase in the percentage of cells in the G0/G1 phase | significantly slower migration | able to decrease the clonogenic potential | significantly slower migration | able to decrease the clonogenic potential
